Laboratory results from article PMC2806534 (Planta, 2009).

Biological target: T1, AtSUT4 (Arabidopsis thaliana, UniProt Q9FE59)
T1 sequence (Q9FE59 1-510): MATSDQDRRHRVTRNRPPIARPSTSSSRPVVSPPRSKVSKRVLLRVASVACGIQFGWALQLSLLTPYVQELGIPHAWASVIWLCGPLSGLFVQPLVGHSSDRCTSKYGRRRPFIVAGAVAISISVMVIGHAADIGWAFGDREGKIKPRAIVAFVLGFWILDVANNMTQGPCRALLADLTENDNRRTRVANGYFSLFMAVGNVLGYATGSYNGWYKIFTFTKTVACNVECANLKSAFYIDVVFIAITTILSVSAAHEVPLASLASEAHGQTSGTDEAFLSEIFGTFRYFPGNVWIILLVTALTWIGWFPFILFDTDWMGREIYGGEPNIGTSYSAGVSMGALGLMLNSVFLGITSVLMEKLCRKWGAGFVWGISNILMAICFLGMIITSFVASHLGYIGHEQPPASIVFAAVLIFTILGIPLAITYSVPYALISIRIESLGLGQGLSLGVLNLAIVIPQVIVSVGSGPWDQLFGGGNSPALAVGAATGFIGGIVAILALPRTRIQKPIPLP
Experiment: inhibition of ^[…]-sucrose uptake in yeast expressing AtSUT4
Assay type: cell-based
Conditions: 3 mM ^14C-sucrose; competing non-labeled sugar at 9 mM

| SMILES | % inhibition at 9 mM |
| --- | --- |
| OC[C@H]1O[C@@H](O[C@H]2[C@H](O)[C@@H](O)C(O)O[C@@H]2CO)[C@H](O)[C@@H](O)[C@H]1O (some centres unmarked) [lactose] | uptake of sucrose by AtSUT4 was inhibited by rutinose, maltose and lactose |
| OC[C@H]1O[C@H](O[C@H]2[C@H](O)[C@@H](O)C(O)O[C@@H]2CO)[C@H](O)[C@@H](O)[C@@H]1O (some centres unmarked) [maltose] | uptake of sucrose by AtSUT4 was inhibited by rutinose, maltose and lactose |
